Measurements as given in US6723897B2, “Methods for controlling gibberellin levels” (Monsanto Technology, LLC, priority 1998, dated 2004).

Experiments:
[1] = system: AX5/antisense CPScc soybean line 234 (R3); test: Hilum seed treatment of epicotyl-intensive GA-deficient soybean, height (FIG. 43); type: in vivo, Glycine max; conditions: 10 DAP
Description: The purpose of this study is to evaluate the ability of four GA compounds, i.e., GA9, GA5, GA3-3-acetate, and GA12, to restore normal growth in AX5/antisense CPScc soybean lines when applied as a seed treatment.
Line 46 plants are R2; Line 234 plants are R3.
The GA compounds are dissolved in ethanol and applied to the hilum of dry seeds as not more than 10 μl droplets with a syringe. If multiple applications are made to seeds, the previous application is allowed to dry before a subsequent application is made.
Seeds are sown 1 inch deep in commercial potting soil (Metromix 200) in 4-inch plastic pots and placed in a greenhouse set for 12 hours artificial light and a temperature regime of 85° F. (29° C.) day and 75° F. night (24° C.). Pots are watered as necessary by overhead hand watering. Hypocotyl and epicotyl measurements are made for each plant at various stages of plant growth.
The lower dashed horizontal line represents the total height of untreated AX5 line 234 soybeans. The upper dashed horizontal line represents the total height of untreated wild-type A4922 soybeans. Measurements are made 10 days after planting.

[2] = system: transgenic line 719 soybean; test: Field trial of seed coatings under soil compaction / different soils, GA-deficient soybean; type: in vivo, Glycine max; conditions: for Count (emergence) / Dwarfs (number of dwarfs not rescued) / Dwarfs (number not rescued): Line 719
[3] = Half-lives of 14C-labelled GA compounds in planta; conditions: Asgrow 3237, soybean (Glycine max), in vivo
Description: ^14C-radiolabelled compounds are obtained from Lew Mander (Australian National University). ^14C-GA3 is dissolved in water:ethanol, 80:20, v/v; ^14C-GA9 and ^14C-GA12 are dissolved in 100% ethanol. Seeds of Asgrow 3237 soybeans are treated separately with solutions of each of the ^14C-radiolabelled compounds (1.7-6.8 μg; 10-40 ppm; 111,000-2,000,000 dpm/seed) by placing one to four μl of the dosing solution directly on the seed coat (^14C-GA3, GA9, and GA12), or on the hilum portion of the seed (^14C-GA3). After evaporation of the carrier solvent (approx. one hour), the treated seed is planted in containers containing approximately 30 gm of Metromix-350, and transferred to a growth chamber. Plants are grown under a 12 hour light/12 hour dark regime at 92° F. (33° C.)and 75% humidity. The pattern of uptake and translocation of ^14C-radioactivity in treated seed is monitored up to 12 days past initial treatment. For most experiments, three replicate plants are harvested at one hour after treatment, one day after treatment (DAT), two DAT, three DAT, six or seven DAT, and 12 DAT. […] The level of ^14C-radioactivity in different plant parts is determined by extraction of plant tissues with aqueous methanol and scintillation counting. The extent of metabolism of the ^14C-labelled GA compounds in planta is determined by HPLC analysis of plant extracts. […]
The general extraction procedure consisted of blending the plant parts in a high speed polytron tissue homogenizer for 1-5 minutes with 10-20 ml of ice-cold methanol:water, 80:20, v/v, followed by vacuum filtration through a Whatman glass fiber filter. The filter cake is re-extracted as necessary using the procedure described above until an insignificant amount of radioactivity is removed. Prior to combining the extracts from each sample, aliquots are weighed and analyzed by liquid scintillation counting (LSC) to determine the amount of extracted radioactivity in each extract. Aliquots of the air-dried filter cakes are combusted and analyzed by LSC in order to determine the amount of non-extracted radioactivity. […]

[4] = Distribution of 14C label in soybean plant parts after seed treatment
Description: ^14C-radiolabelled compounds are obtained from Lew Mander (Australian National University). ^14C-GA3 is dissolved in water:ethanol, 80:20, v/v; ^14C-GA9 and ^14C-GA12 are dissolved in 100% ethanol. Seeds of Asgrow 3237 soybeans are treated separately with solutions of each of the ^14C-radiolabelled compounds (1.7-6.8 μg; 10-40 ppm; 111,000-2,000,000 dpm/seed) by placing one to four μl of the dosing solution directly on the seed coat (^14C-GA3, GA9, and GA12), or on the hilum portion of the seed (^14C-GA3). After evaporation of the carrier solvent (approx. one hour), the treated seed is planted in containers containing approximately 30 gm of Metromix-350, and transferred to a growth chamber. Plants are grown under a 12 hour light/12 hour dark regime at 92° F. (33° C.)and 75% humidity. The pattern of uptake and translocation of ^14C-radioactivity in treated seed is monitored up to 12 days past initial treatment. For most experiments, three replicate plants are harvested at one hour after treatment, one day after treatment (DAT), two DAT, three DAT, six or seven DAT, and 12 DAT. At the time of each harvest, plants are divided into leaves, epicotyl, cotyledon, hypocotyl, and roots. The level of ^14C-radioactivity in different plant parts is determined by extraction of plant tissues with aqueous methanol and scintillation counting. The extent of metabolism of the ^14C-labelled GA compounds in planta is determined by HPLC analysis of plant extracts. The details are as follows.
The general extraction procedure consisted of blending the plant parts in a high speed polytron tissue homogenizer for 1-5 minutes with 10-20 ml of ice-cold methanol:water, 80:20, v/v, followed by vacuum filtration through a Whatman glass fiber filter. The filter cake is re-extracted as necessary using the procedure described above until an insignificant amount of radioactivity is removed. Prior to combining the extracts from each sample, aliquots are weighed and analyzed by liquid scintillation counting (LSC) to determine the amount of extracted radioactivity in each extract. Aliquots of the air-dried filter cakes are combusted and analyzed by LSC in order to determine the amount of non-extracted radioactivity. The extracts are combined and, when necessary, concentrated by rotary evaporation at a bath temperature of less than 35° C. to a small volume for analysis by HPLC to determine the extent of metabolism of the ^14C-labelled GA compounds in planta.

[5] = system: AX5/antisense CPScc soybean line 46 (R2); test: Hilum seed treatment of epicotyl-intensive GA-deficient soybean, seedling height (FIG. 42); type: in vivo, Glycine max; conditions: 8 DAP
Description: These studies are performed on soybean plants engineered to express their GA-deficient phenotype throughout the life cycle via the use of the constitutive FMV promoter (line 719, FMV/antisense CPScc). In contrast to the constitutive FMV promoter, the peak activity of the AX5 promoter is developmentally restricted to the soybean seedling axis (epicotyl) three to five days after the start of imbibition, with limited expression beyond the seedling stage of development. Soybean lines transformed with the […] cassette therefore display an epicotyl-intensive dwarf phenotype. In these lines, inhibition of the hypocotyl is modest; most of the total height reduction in these plants is due to shortening of the epicotyl. Rescue of […] soybean plants therefore presents different technical challenges from those required for rescue of constitutively GA-deficient transgenic dwarf soybean lines containing the […] construct. […] Seed from both lines is produced from greenhouse-grown plants. […] If multiple applications are made to seeds, the previous application is allowed to dry before a subsequent application is made. […] (29° C.) day and 75° F. night (24° C.). Pots are watered as necessary by overhead hand watering. Hypocotyl and epicotyl measurements are made for each plant at various stages of plant growth. […] The results are shown in FIG. 42, where the error bar represents +/-two times the standard error of the mean (n=12-15). […] The upper dashed horizontal line represents the total height of untreated wild-type […] soybeans. Measurements are made 8 days after planting.

[6] = Heavy soil - Loose, target rate 0.5 μg/seed, Table 23
[7] = Heavy soil - Loose, target rate 4.0 μg/seed, Table 23
[8] = Heavy soil - Loose, target rate 8.0 μg/seed, Table 23
[9] = Heavy soil - Loose, target rate 16.0 μg/seed, Table 23
[10] = Heavy soil - compacted, target rate 0.5 μg/seed, Table 23
[11] = Heavy soil - compacted, target rate 4.0 μg/seed, Table 23
[12] = Heavy soil - compacted, target rate 8.0 μg/seed, Table 23
[13] = Heavy soil - compacted, target rate 16.0 μg/seed, Table 23
[14] = Heavy soil - loose, target rate 0.5 μg/seed, Table 22
[15] = Heavy soil - loose, target rate 2.0 μg/seed, Table 22
[16] = Light soil - Compacted, target rate 0.5 μg/seed, Table 22
[17] = Light soil - Compacted, target rate 2.0 μg/seed, Table 22
[18] = Light soil - Loose, target rate 0.5 μg/seed, Table 24
[19] = Light soil - Loose, target rate 2.0 μg/seed, Table 24
[20] = Light soil - Loose, target rate 4.0 μg/seed, Table 24
[21] = Light soil - compacted, target rate 0.5 μg/seed, Table 24
[22] = Light soil - compacted, target rate 2.0 μg/seed, Table 24
[23] = Light soil - compacted, target rate 4.0 μg/seed, Table 24

Structure (SMILES): C=C1C[C@]23C[C@@]1(O)CC[C@H]2[C@@]12C=C[C@H](O)[C@@](C)(C(=O)O1)[C@H]2[C@@H]3C(=O)O [GA3, gibberellic acid]
- restoration of height of line 234 soybeans ([1]; hypocotyl and epicotyl elongation, hypocotyl to epicotyl ratio not maintained): restore normal height to line 234 soybeans
- response of line 234 height ([1]; seed treatment rates between 0.1 and 1 μg/seed): generally similar response
- % Emergence, Heavy Soil-Loose ([2]; 0.1 μg/seed): 78%
- % Emergence, Light Soil-Compact ([2]; 0.1 μg/seed): 59%
- % Rescue, Heavy Soil-Loose ([2]; 0.1 μg/seed): 80%
- % Rescue, Light Soil-Compact ([2]; 0.1 μg/seed): 100%
- % Emergence, Heavy Soil-Loose ([2]; 2.0 μg/seed): 66%
- % Emergence, Light Soil-Compact ([2]; 2.0 μg/seed): 51%
- % Rescue, Heavy Soil-Loose ([2]; 2.0 μg/seed): 93%
- % Rescue, Light Soil-Compact ([2]; 2.0 μg/seed): 100%
- Count (emergence) [2, 6]: 27.3 cd
- Dwarfs (number of dwarfs not rescued) [2, 6]: 2.0 cde
- Count (emergence) [2, 7]: 14.3 f
- Dwarfs (number of dwarfs not rescued) [2, 7]: 0 e
- Count (emergence) [2, 8]: 35.3 abc
- Dwarfs (number of dwarfs not rescued) [2, 8]: 0.7 cde
- Count (emergence) [2, 9]: 30.7 bcd
- Dwarfs (number of dwarfs not rescued) [2, 9]: 0 e
- Count (emergence) [2, 10]: 7.7 efg
- Dwarfs (number of dwarfs not rescued) [2, 10]: 0.3 cd
- Dwarfs (number of dwarfs not rescued) ([2]; Heavy soil - compacted, target rate 2.0 μg/seed, Table 23): 0 days
- Count (emergence) [2, 11]: 3.3 fg
- Dwarfs (number of dwarfs not rescued) [2, 11]: 0 days
- Count (emergence) [2, 12]: 8.7 g·days
- Dwarfs (number of dwarfs not rescued) [2, 12]: 0 days
- Count (emergence) [2, 13]: 12.0 b-e
- Dwarfs (number of dwarfs not rescued) [2, 13]: 0 days
- Count (emergence) [2, 14]: 27 cd
- Dwarfs (number of dwarfs not rescued) [2, 14]: 2.0 cde
- Count (emergence) [2, 15]: 25 de
- Dwarfs (number of dwarfs not rescued) [2, 15]: 0.7 cde
- Count (emergence) [2, 16]: 22 efg
- Dwarfs (number of dwarfs not rescued) [2, 16]: 0 days
- Count (emergence) [2, 17]: 19 fg
- Dwarfs (number of dwarfs not rescued) [2, 17]: 0 days
- Count (emergence) [2, 18]: 45.0 ab
- Dwarfs (number not rescued) [2, 18]: 0 e
- Count (emergence) [2, 19]: 43.7 ab
- Dwarfs (number not rescued) [2, 19]: 0 e
- Count (emergence) [2, 20]: 39.3 b
- Dwarfs (number not rescued) [2, 20]: 0 e
- Count (emergence) [2, 21]: 1.2e+16 fg
- Dwarfs (number not rescued) [2, 21]: 0
- Count (emergence) [2, 22]: 19.3 fg
- Dwarfs (number not rescued) [2, 22]: 0
- Count (emergence) [2, 23]: 26.3 c-f
- Dwarfs (number not rescued) [2, 23]: 0
- rank of potential for rescuing GA-deficient dwarf soybeans without decreasing emergence ([2]; based on the last two field trials): GA9>GA5>GA3-3-acetate>GA3>GA12
- best to least selectivity order ([2]; emergence under soil compaction, margin of selectivity, rescue without overelongation, Table 22): GA9>GA5>GA3-3-acetate>GA3
- half-life [3]: 48 to 72 h
- ^14C Label Distribution (% of dose), Cotyledon ([4]; 3 DAP): 85 % of dose
- ^14C Label Distribution (% of dose), Hypocotyl ([4]; 3 DAP): 1.5 % of dose
- ^14C Label Distribution (% of dose), Root ([4]; 3 DAP): 0.5 % of dose
- ^14C Label Distribution (% of dose), Cotyledon ([4]; 12 DAP): 72 % of dose
- ^14C Label Distribution (% of dose), Epicotyl ([4]; 12 DAP): 0.2 % of dose
- ^14C Label Distribution (% of dose), Hypocotyl ([4]; 12 DAP): 1.4 % of dose
- ^14C Label Distribution (% of dose), Leaves ([4]; 12 DAP): 0.9 % of dose
- ^14C Label Distribution (% of dose), Root ([4]; 12 DAP): 2.8 % of dose
- effect on line 46 total height [5]: rescued AX5/asCPScc soybean line 46 total height, with some hypocotyl over-elongation
